Data on 24 compounds can be found in patent US20190292167A1, “HETEROAROMATIC COMPOUNDS USEFUL FOR THE TREATMENT OF PROLIFERATIVE DISEASES” (Syros Pharmaceuticals, Inc., priority 2013, published 2019).

Molecules are shown by their SMILES. Structures can show the parent of a compound that is named as a salt. Where two headings read alike, the source gives them in different places. Some results are limits rather than exact numbers.

The target of one test is T1, CDK7 (Homo sapiens, UniProt P50613).
T1 construct: purchased Life Technologies (Adapta kinase assay service)
T1 sequence (P50613 whole entry): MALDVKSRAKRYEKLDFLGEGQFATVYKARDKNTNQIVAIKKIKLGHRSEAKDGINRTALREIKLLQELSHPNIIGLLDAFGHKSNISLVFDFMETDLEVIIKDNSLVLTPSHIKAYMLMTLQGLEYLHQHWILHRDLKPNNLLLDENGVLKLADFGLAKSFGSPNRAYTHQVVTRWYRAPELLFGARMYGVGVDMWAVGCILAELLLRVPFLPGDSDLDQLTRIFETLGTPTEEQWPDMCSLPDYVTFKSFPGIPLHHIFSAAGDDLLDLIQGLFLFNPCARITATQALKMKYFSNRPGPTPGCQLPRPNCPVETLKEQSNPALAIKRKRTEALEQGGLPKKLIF
T1 sequence (P51946 whole entry partner): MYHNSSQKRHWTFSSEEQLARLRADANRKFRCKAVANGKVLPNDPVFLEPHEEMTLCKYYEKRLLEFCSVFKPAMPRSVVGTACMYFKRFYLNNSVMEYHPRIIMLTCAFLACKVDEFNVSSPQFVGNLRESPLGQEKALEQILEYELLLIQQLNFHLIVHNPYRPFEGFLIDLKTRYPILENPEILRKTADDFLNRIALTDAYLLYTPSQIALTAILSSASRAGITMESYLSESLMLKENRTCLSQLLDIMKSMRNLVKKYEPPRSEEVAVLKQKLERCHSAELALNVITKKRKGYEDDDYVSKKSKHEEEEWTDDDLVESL
T1 sequence (P51948 whole entry partner): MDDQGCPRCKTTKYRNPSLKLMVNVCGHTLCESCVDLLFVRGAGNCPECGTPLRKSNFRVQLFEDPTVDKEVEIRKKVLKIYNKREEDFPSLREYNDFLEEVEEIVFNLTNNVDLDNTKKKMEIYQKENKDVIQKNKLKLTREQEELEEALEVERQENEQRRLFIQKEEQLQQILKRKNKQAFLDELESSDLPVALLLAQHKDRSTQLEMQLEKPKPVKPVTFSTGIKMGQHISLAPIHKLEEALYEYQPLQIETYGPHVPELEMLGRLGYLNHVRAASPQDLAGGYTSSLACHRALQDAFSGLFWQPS
Kind of test: Adapta kinase assay (Life Technologies) against CDK7, co-factors cyclin H and MNAT1. In kind it is biochemical. The settings on record: read-out: CDK7 Inhibition. The method, then: Compounds of the invention were assayed for activity against CDK7 at Life Technologies™ (Grand Island, N.Y.) using their commercially available Adapta® kinase assay services. […] Details of the assay, including the substrate used for CDK7 kinase, are available on the Life Technologies web site (http://www.lifetechnologies.com/us/en/homellife-science/drug-discovery/target-and-lead-identification-and-validation/kinasebiology/kinase-activity-assays.html).
The co-factors used for the assay were cyclin H and MNAT1.

The next test has as its system Jurkat. Kind of test: Inhibition of cell proliferation, CellTiter-Glo, 72 hour. In kind it is cell-based. Conditions: Blood cancer cell line, 72 hour, read-out: Inhibition of Proliferation of Jurkat Cells. The method, then: The following cancer cell lines were tested with the media conditions indicated: […]
A general note: ATP-based viability assays read luminescence as a measure of living cells.

In the case of `C=CC(=O)Nc1ccc(CNC(=O)C2CC(Nc3ncc(Cl)c(-c4c[nH]c5ccccc45)n3)CN(C)C2)cc1` (racemic) [Compound 157, (+/−cis)-N-(4-acrylamidobenzyl)-5-((5-chloro-4-(1H-indol-3-yl)pyrimidin-2-yl)amino)-1-methylpiperidine-3-carboxamide], the IC50 on CDK7 was under 100 nM; with Jurkat (Homo sapiens, Jurkat, 72 h), under 500 nM.

With `CC(C)(CNC(=O)c1ccc(NC(=O)/C=C/CO)cc1)CNc1ncc(Cl)c(-c2c[nH]c3ccccc23)n1` [Compound 132, (E)-N-(3-(5-chloro-4-(1H-indol-3-yl)pyrimidin-2-ylamino)-2,2-dimethylpropyl)-4-(4-hydroxybut-2-enamido)benzamide], the IC50 was over 1000 nM on CDK7 and over 5000 nM in the test with Jurkat (Homo sapiens, Jurkat, 72 h).

Consider `CC(=O)Nc1ccc(CN2CCC(Nc3ncc(Cl)c(-c4c[nH]c5ccccc45)n3)CC2)cc1` [Compound 47, N-(4-((4-(5-chloro-4-(1H-indol-3-yl)pyrimidin-2-ylamino)piperidin-1-yl)methyl)phenyl)acetamide], for which the IC50 on CDK7 was in the range of 100 to 1000 nM; in the test on Jurkat (Homo sapiens, Jurkat, 72 h), 500 to 5000 nM.

`Nc1ccc(C(=O)N2CCC(Nc3ncc(Cl)c(-c4c[nH]c5ccccc45)n3)CC2)cc1F` [Compound 55, (4-amino-3-fluorophenyl)(4-(5-chloro-4-(1H-indol-3-yl)pyrimidin-2-ylamino)piperidin-1-yl)methanone]: the IC50 at CDK7 is under 100 nM; in the test on Jurkat (Homo sapiens, Jurkat, 72 h) it was 500 to 5000 nM.

Regarding `Cc1[nH]c2ccccc2c1-c1nc(N[C@@H]2CC[C@H](NC(=O)c3ccc(NC(=O)/C=C/CN(C)C)cc3)C2)ncc1Cl` (racemic) [Compound 126, N-((1R,3S)-3-((5-chloro-4-(2-methyl-1H-indol-3-yl)pyrimidin-2-yl)amino)cyclopentyl)-4-((E)-4-(dimethylamino)but-2-enamido)benzamide and N-((1S,3R)-3-((5-chloro-4-(2-methyl-1H-indol-3-yl)pyrimidin-2-yl)amino)cyclopentyl)-4-((E)-4-(dimethylamino)but-2-enamido)benzamide], the IC50 at CDK7 was under 100 nM; in the test on Jurkat (Homo sapiens, Jurkat, 72 h) it was under 500 nM.

Regarding `Nc1ccc(C(=O)N2CC[C@@H](Nc3ncc(Cl)c(-c4c[nH]c5ccccc45)n3)C2)cc1` [Compound 35, (4-aminophenyl)((R)-3-(5-chloro-4-(1H-indol-3-yl)pyrimidin-2-ylamino)pyrrolidin-1-yl)methanone], the IC50 on CDK7 was under 100 nM; in the test with Jurkat (Homo sapiens, Jurkat, 72 h), 500 to 5000 nM.

For the compound `C=CC(=O)Nc1ccc(NC(=O)C2CNCC(Nc3ncc(Cl)c(-c4c[nH]c5ccccc45)n3)C2)cc1` (racemic) [Compound 153, (+/−cis)-N-(4-acrylamidophenyl)-5-((5-chloro-4-(1H-indol-3-yl)pyrimidin-2-yl)amino)piperidine-3-carboxamide], the IC50 is under 100 nM at CDK7 and under 500 nM with Jurkat (Homo sapiens, Jurkat, 72 h).

Regarding `CN(C)C/C=C/C(=O)Nc1ccc(C(=O)N[C@@H]2CC[C@H](Nc3ncc(Cl)c(-c4cc[nH]n4)n3)C2)cc1.CN(C)C/C=C/C(=O)Nc1ccc(C(=O)N[C@H]2CC[C@@H](Nc3ncc(Cl)c(-c4cc[nH]n4)n3)C2)cc1` (mixture of isomers) [Compound 124, N-((1R,3S)-3-((5-chloro-4-(1H-pyrazol-3-yl)pyrimidin-2-yl)amino)cyclopentyl)-4-((E)-4-(dimethylamino)but-2-enamido)benzamide and N-((1S,3R)-3-((5-chloro-4-(1H-pyrazol-3-yl)pyrimidin-2-yl)amino)cyclopentyl)-4-((E)-4-(dimethylamino)but-2-enamido)benzamide], the IC50 on CDK7 was over 1000 nM; with Jurkat, over 5000 nM.

Take `N#Cc1cnc(N[C@@H]2CCN(C(=O)c3ccc(N)cc3)C2)nc1-c1c[nH]c2ccccc12` [Compound 37, 2-((R)-1-(4-aminobenzoyl)pyrrolidin-3-ylamino)-4-(1H-indol-3-yl)pyrimidine-5-carbonitrile]: the IC50 was under 100 nM on CDK7 and 500 to 5000 nM in the test on Jurkat (Homo sapiens, Jurkat, 72 h).

For `NCC(=O)Nc1cccc(Nc2ncc(Cl)c(-c3c[nH]c4ccccc34)n2)c1` [Compound 307, 2-amino-N-(3-(5-chloro-4-(1H-indol-3-yl)pyrimidin-2-ylamino)phenyl)acetamide.TFA], the IC50 is under 100 nM at CDK7 and 500 to 5000 nM with Jurkat (Homo sapiens, Jurkat, 72 h).

Take `CN(C)C/C=C/C(=O)Nc1ccc(CN2CC[C@@H](Nc3ncc(Cl)c(-c4c[nH]c5ccccc45)n3)C2)cc1` [Compound 144, (R,E)-N-(4-((3-((5-chloro-4-(1H-indol-3-yl)pyrimidin-2-yl)amino)pyrrolidin-1-yl)methyl)phenyl)-4-(dimethylamino)but-2-enamide (E)-4-(dimethylamino)but-2-enoate]: the IC50 on CDK7 is under 100 nM; in the test with Jurkat (Homo sapiens, Jurkat, 72 h) it was under 500 nM.

`CN(C)C/C=C/C(=O)N(C)c1cccc(CN2CCC(Nc3ncc(Cl)c(-c4c[nH]c5ccccc45)n3)CC2)c1` [Compound 145, (E)-N-[3-[[4-[[5-chloro-4-(1H-indol-3-yl)pyrimidin-2-yl]amino]-1-piperidyl]methyl]phenyl]-4-(dimethylamino)-N-methyl-but-2-enamide]: the IC50 is under 100 nM on CDK7 and under 500 nM in the test on Jurkat (Homo sapiens, Jurkat, 72 h).

For the compound `N#Cc1cnc(NC2CCN(C(=O)c3ccc(N)cc3)CC2)nc1-c1c[nH]c2ccccc12` [Compound 26, 2-(1-(4-aminobenzoyl)piperidin-4-ylamino)-4-(1H-indol-3-yl)pyrimidine-5-carbonitrile], the IC50 at CDK7 lay within 100 to 1000 nM; in the test with Jurkat (Homo sapiens, Jurkat, 72 h), 500 to 5000 nM.

For the compound `CN(C)C/C=C/C(=O)Nc1ccc(C(=O)N[C@@H]2CC[C@H](Nc3ncc(Cl)c(-c4cccnc4)n3)C2)cc1` (racemic) [Compound 123, N-((1R,3S)-3-((5-chloro-4-(pyridin-3-yl)pyrimidin-2-yl)amino)cyclopentyl)-4-((E)-4-(dimethylamino)but-2-enamido)benzamide and N-((1S,3R)-3-((5-chloro-4-(pyridin-3-yl)pyrimidin-2-yl)amino)cyclopentyl)-4-((E)-4-(dimethylamino)but-2-enamido)benzamide], the IC50 on CDK7 was 100 to 1000 nM; in the test on Jurkat (Homo sapiens, Jurkat, 72 h) it was under 500 nM.

Turning to `Cc1noc(C)c1-c1nc(NC2CCN(C(=O)c3ccc(NC(=O)/C=C/CN(C)C)cc3)CC2)ncc1Cl` [Compound 121, (E)-N-(4-(4-((5-chloro-4-(3,5-dimethylisoxazol-4-yl)pyrimidin-2-yl)amino)piperidine-1-carbonyl)phenyl)-4-(dimethylamino)but-2-enamide], the IC50 on CDK7 is over 1000 nM; in the test with Jurkat (Homo sapiens, Jurkat, 72 h), 500 to 5000 nM.

For `CNC/C=C/C(=O)Nc1ccc(CN2CCC(Nc3ncc(Cl)c(-c4c[nH]c5ccccc45)n3)CC2)cc1` [Compound 142, (E)-N-[4-[[4-[[5-chloro-4-(1H-indol-3-yl)pyrimidin-2-yl]amino]-1-piperidyl]methyl]phenyl]-4-(methylamino)but-2-enamide], the IC50 on CDK7 was under 100 nM; in the test on Jurkat (Homo sapiens, Jurkat, 72 h), under 500 nM.

Take `C=CC(=O)Nc1ccc(CNC(=O)[C@H]2CNCC(Nc3ncc(Cl)c(-c4c[nH]c5ccccc45)n3)C2)cc1` (mixture of isomers) [Compound 151, (+/−trans)-N-(4-acrylamidobenzyl)-5-((5-chloro-4-(1H-indol-3-yl)pyrimidin-2-yl)amino)piperidine-3-carboxamide]: the IC50 at CDK7 is under 100 nM; with Jurkat (Homo sapiens, Jurkat, 72 h) it was under 500 nM.

For `CN(C/C=C/C(=O)Nc1ccc(CN2CCC(Nc3ncc(Cl)c(-c4c[nH]c5ccccc45)n3)CC2)cc1)CC(O)CO` (stereo not drawn) [Compound 143, (E)-N-(4-((4-((5-chloro-4-(1H-indol-3-yl)pyrimidin-2-yl)amino)piperidin-1-yl)methyl)phenyl)-4-((2,3-dihydroxypropyl)(methyl)amino)but-2-enamide], the IC50 is under 100 nM on CDK7 and under 500 nM in the test on Jurkat (Homo sapiens, Jurkat, 72 h).

As to `CN(C)C/C=C/C(=O)Nc1ccc(C(=O)N[C@H]2CC[C@@H](Nc3ncc(Cl)c(-c4c[nH]c5ccccc45)n3)C2)cc1` [Compound 130, N-((1S,3R)-3-((5-chloro-4-(1H-indol-3-yl)pyrimidin-2-yl)amino)cyclopentyl)-4-((E)-4-(dimethylamino)but-2-enamido)benzamide], the IC50 in the test on Jurkat (Homo sapiens, Jurkat, 72 h) is under 500 nM.

With `CS(=O)(=O)NC/C=C/C(=O)Nc1ccc(CN2CCC(Nc3ncc(Cl)c(-c4c[nH]c5ccccc45)n3)CC2)cc1` [Compound 158, (E)-N-(4-((4-((5-chloro-4-(1H-indol-3-yl)pyrimidin-2-yl)amino)piperidin-1-yl)methyl)phenyl)-4-(methylsulfonamido)but-2-enamide], the IC50 at CDK7 was in the range of 100 to 1000 nM.

Regarding `Nc1ccc(C(=O)NC2CC3(C2)CC(Nc2ncc(Cl)c(-c4c[nH]c5ccccc45)n2)C3)cc1` (stereo not drawn) [Compound 318, 4-amino-N-(6-((5-chloro-4-(1H-indol-3-yl)pyrimidin-2-yl)amino)spiro[3.3]heptan-2-yl)benzamide], in the test with Jurkat (Homo sapiens, Jurkat, 72 h), the IC50 was over 5000 nM.

As to `C=CC(=O)Nc1ccc(NC(=O)[C@H]2C[C@@H](Nc3ncc(Cl)c(-c4c[nH]c5ccccc45)n3)CN(C)C2)cc1` (relative stereo) [Compound 160, (Cis)-N-(4-acrylamidophenyl)-5-((5-chloro-4-(1H-indol-3-yl)pyrimidin-2-yl)amino)-1-methylpiperidine-3-carboxamide], the IC50 on CDK7 is under 100 nM.

For the compound `C=CC(=O)Nc1ccc(NC(=O)[C@@H]2C[C@@H](Nc3ncc(Cl)c(-c4c[nH]c5ccccc45)n3)CN(C)C2)cc1` (relative stereo) [Compound 159, (Trans)-N-(4-acrylamidophenyl)-5-((5-chloro-4-(1H-indol-3-yl)pyrimidin-2-yl)amino)-1-methylpiperidine-3-carboxamide], the IC50 on CDK7 is 100 to 1000 nM.

With `CN(C)C/C=C/C(=O)Nc1ccc(C(=O)N[C@H]2C[C@@H](Nc3ncc(Cl)c(-c4c[nH]c5ccccc45)n3)CN(C)C2)cc1` (racemic) [161/162, N-[(3S)-5-[[5-chloro-4-(1H-indol-3-yl)pyrimidin-2-yl]amino]-1-methyl-3-piperidyl]-4-[[(E)-4-(dimethylamino)but-2-enoyl]amino]benzamide], the IC50 at CDK7 was under 100 nM.
